{
  "source": "patent US20130137760A1",
  "about": "“GAMBOGIC AMINE, A SELECTIVE TRKA AGONIST WITH NEUROPROTECTIVE ACTIVITY” (EMORY UNIVERSITY, priority 2007, published 2013)",
  "key": {"[1]": {"system": "T17 cells (TrkA stably transfected SN56 cells)", "assay": "Cell-based apoptotic assay: protection of TrkA-expressing T17 cells from staurosporine-initiated apoptosis, MR(DEVD)2 caspase-3 dye", "set-up": "species or system murine", "conditions": "for apoptosis inhibitory activity in T17 cells: 0.5 μM pre-incubation, then 1 μM STS for 9 h, compared with NGF", "excerpt": "In order to identify small molecules that mimic NGF and activate TrkA, we developed a cell-based apoptotic assay using a cell permeable fluorescent dye MR([…])2, which turns red upon caspase-3 cleavage in apoptotic cells. We utilized a murine cell line T17, which was derived from basal forebrain SN56 cells. T17 cells are TrkA stably transfected SN56 cells. The candidates selectively protecting T17 but not SN56 cells from the first round screen can then be subjected to neurite outgrowth assay for the secondary screen. The positive compounds can be analyzed for TrkA tyrosine phosphorylation, Akt and MAP kinases signaling cascade activation.\nT17 cells can be cultured in 96-well plates and preincubated with 10 μM compounds for 30 min, followed by 1 μM staurosporine (STS) treatment for 9 h. MR(DEVD)2 can be introduced to the cells 1 h before examination under fluorescent microscope. The apoptotic cells are red, while live cells have no signal. […] Using the caspase-3-activated fluorescent dye as a visual assay, one can screen the gambogic amine compounds.\nTo compare the apoptosis inhibitory activity of various compounds, one can pre-incubate gambogic amines derivatives (0.5 μM) with T17 and SN56 cells, followed by 1 μM STS for 9 h. Quantitative analysis of the apoptosis inhibitory activities can determine whether the compounds protect SN56 cells from apoptosis.\nT17 cells can be seeded in a 96-well plate at 10,000 cells/well in 100 μl complete medium. Cells can be incubated overnight, followed by 30 min pretreatment with 10 μM compounds in DMSO (10 mM stock concentration from The Spectrum Collection library). The cells can then be treated with 1 μM Staurosporine for 9 h. One h before the termination of the experiment, 10 μM MR(DEVD)2, a cell permeable caspase-3-activated fluorescent dye can be introduced. Cells can be fixed with 4% paraformaldehyde for 15 min. Cells can then be washed with PBS and incubated with 1 μg/ml of Hoechst 33342 for 10 min. Cover slides can then be washed with PBS, mounted, and examined using a fluorescence microscope."}, "[2]": {"conditions": "Kasibhatla et al., 2005; cited from earlier work"}, "hippocampus": {"system": "hippocampus", "assay": "Kainic acid-elicited neuronal cell death in mouse brain (TUNEL, hippocampus)", "type": "in vivo, C57BL/6 mice", "conditions": "KA alone, quantitative analysis of apoptosis", "excerpt": "Kainic acid (KA) is a potent agonist for the AMPA receptor. Peripheral injections of KA result in recurrent seizures and the subsequent degeneration of select populations of neurons in the hippocampus (Nadler et al., 1980; Schauwecker and Steward, 1997; Sperk et al., 1983). It has been shown that the activation of caspase-3 is a necessary component of KA-induced cell death (Faherty et al., 1999). To explore whether test compounds can block the neurotoxicity initiated by KA, the compounds can be subcutaneously injected (for example, at a concentration of 2 mg/kg) into C57BL/6 mice, followed by 25 mg/kg KA. In 5 days, the mice can be perfused and the brains cut to a thickness of 5 μm and mounted on slides.\nKainic acid (KA) is a potent agonist for the AMPA receptor. Peripheral injections of KA result in recurrent seizures and the subsequent degeneration of select populations of neurons in the hippocampus (Nadler et al., 1980; Schauwecker and Steward, 1997; Sperk et al., 1983). It has been shown that the activation of caspase-3 is a necessary component of KA-induced cell death (Faherty et al., 1999). To explore whether gambogic amines can block the neurotoxicity initiated by KA, one can subcutaneously inject 2 mg/kg of a gambogic amine into C57BL/6 mice, followed by 25 mg/kg KA. In 5 days, the mice can be perfused and the brains were cut to a thickness of 5 μm and mounted on slides. TUNEL staining can reveal whether KA provokes enormous apoptosis in the hippocampus, and whether this effect is substantially diminished by the gambogic amine.\nMale C57BL/6 mice aged of 60 days can be injected subcutaneously (s.c.) with a single dose of either 30% ethanol in saline or KA (25 mg/kg) (Sigma, Mo.) or the gambogic amine (2 mg/kg) followed by KA. Animals can be continually monitored for 2 h for the onset of seizure activity. At 5 days following treatment, animals can be anesthetized and perfused with 4% paraformaldehyde in 0.1 M phosphate buffered saline. Brains can be removed, post-fixed overnight and processed for paraffin embedding. […]"}, "PC12 cells": {"system": "PC12 cells", "assay": "Neurite outgrowth in PC12 cells", "type": "cell-based", "conditions": "after 5 days of treatment", "description": "One of most prominent neurotrophic effects of NGF is to trigger neurite outgrowth in neuronal cells and incur differentiation. […] The cell medium containing the compounds can be replenished every other day. […] The gambogic amine compounds can similarly be evaluated for their ability to induce evident neurite outgrowth in PC12 cells. Dose-dependent assays can reveal whether 10-50 nM of gambogic amines are sufficient to provoke substantial neurite sprouting in PC12 cells."}, "TrkA": {"system": "TrkA", "assay": "TrkA tyrosine phosphorylation in primary hippocampal neurons, anti-phospho-TrkA Y490 immunoblot", "type": "cell-based", "conditions": "30 min", "excerpt": "NGF binds to receptor TrkA and elicits its dimerization and autophosphorylation on tyrosine residues. Numerous tyrosine residues on TrkA are phosphorylated upon NGF stimulation. For example, Y490 phosphorylation is required for Shc association and activation of MAP kinase signaling cascade. Y751 phosphorylation is essential for PI 3-kinase docking and activation. To evaluate whether gambogic amine compounds can also trigger TrkA tyrosine phosphorylation, one can treat primary hippocampal neurons with various drugs at 0.5 μM for 30 min. The cell lysates can be analyzed by immunoblotting with anti-phospho-TrkA Y490 antibody. […] To explore whether gambogic amines can trigger TrkA dimerization, one can cotransfect GFP-TrkA and HA-TrkA into HEK293 cells, and treat the cells with 0.5 μM gambogic amine for 30 min. Communoprecipitation assays can be used to determine whether gambogic amines provoke TrkA dimerization even more strongly than NGF. One can also evaluate whether the gambogic amines also elicit tyrosine phosphorylation in TrkA but not in TrkB or C receptors."}, "Erk1/2 and Akt": {"system": "Erk1/2 and Akt", "assay": "Erk1/2 and Akt phosphorylation in T17 cells, immunoblot", "type": "cell-based, murine", "conditions": "30 min", "description": "(§1) NGF triggers PI 3-kinase/Akt and Ras/MAP Kinase signaling cascades activation through the TrkA receptor. […] The cell lysates can be analyzed by immunoblotting with anti-phospho-Erk1/2 and phospho-Akt-473 antibodies, respectively. […] One can also extend the assays into primary hippocampal neurons. […] Time course assay with hippocampal neurons can show whether gambogic amines (0.5 μM) elicit Akt phosphorylation after 5 min treatment, and whether Akt activation increases after 10 min and is sustained for 60 min. One can also determine whether the gambogic amines provoke Akt activation in a dose-dependent manner."}, "Akt": {"system": "Akt", "assay": "Akt activation in primary hippocampal neurons", "type": "cell-based", "description": "as §1"}},
  "data": [
    {"compound": "CC(C)=CCCC1(C)C=Cc2c(O)c3c(c(CC=C(C)C)c2O1)OC12C(=CC4CC1C(C)(C)OC2(C/C=C(/C)C(=O)O)C4O)C3=O", "note": "(centres unmarked) [dihydrogambogic acid]", "values": [
      {"measurement": "apoptosis inhibitory activity in T17 cells", "setting": "[1]", "value": "strongly suppress apoptosis in T17 cells with protective activities even stronger than NGF"}
    ]},
    {"compound": "CC(C)=CCC[C@]1(C)C=Cc2c(O)c3c(c(CC=C(C)C)c2O1)O[C@]12C(=C[C@@H]4C[C@H]1C(C)(C)O[C@@]2(C/C=C(/C)C(=O)O)C4=O)C3=O", "note": "[gambogic acid, Gambogic Acid]", "values": [
      {"measurement": "apoptosis inhibitory activity in T17 cells", "setting": "[1]", "value": "strongly suppress apoptosis in T17 cells with protective activities even stronger than NGF"},
      {"measurement": "Kd of association with Transferrin", "setting": "[2]", "value": 2200, "unit": "nM"}
    ]},
    {"compound": "COC(=O)/C(C)=C\\CC12OC(C)(C)C3CC(C=C4C(=O)c5c(OC)c6c(c(CC=C(C)C)c5OC431)OC(C)(CCC=C(C)C)C=C6)C2=O", "note": "(centres unmarked) [dimethyl gambogate]", "values": [
      {"measurement": "apoptosis inhibitory activity in T17 cells", "setting": "[1]", "value": "strongly suppress apoptosis in T17 cells with protective activities even stronger than NGF"}
    ]},
    {"compound": "C=C(C)[C@H]1CN[C@H](C(=O)O)[C@H]1CC(=O)O", "note": "[KA, Kainic acid]", "values": [
      {"measurement": "cell death in the CA1 region of the hippocampus", "setting": "hippocampus; CA1 region", "value": 47, "unit": "%"},
      {"measurement": "cell death in the CA3 region of the hippocampus", "setting": "hippocampus; CA3 region", "value": 57, "unit": "%"}
    ]},
    {"compound": "NGF: nerve growth factor, binds mainly TrkA; positive control, from Roche", "values": [
      {"measurement": "red (apoptotic) cell numbers compared to DMSO control", "setting": "[1]; positive control, 1 μM staurosporine for 9 h, MR(DEVD)2 dye", "value": "substantially decreases the red cell numbers"},
      {"measurement": "neurite sprouting in PC12 cells", "setting": "PC12 cells", "value": "pronounced neurite sprouting"},
      {"measurement": "TrkA phosphorylation (Y490)", "setting": "TrkA", "value": "induces potent TrkA phosphorylation"},
      {"measurement": "Erk1/2 and Akt phosphorylation", "setting": "Erk1/2 and Akt", "value": "stimulates demonstrable Erk1/2 and Akt phosphorylation"},
      {"measurement": "Akt activation", "setting": "Akt", "value": "evidently activates Akt"}
    ]}
  ]
}
